Measurements reported in article PMC5583591, “The N-terminal Region of Nisin Is Important for the BceAB-Type ABC Transporter NsrFP from Streptococcus agalactiae COH1” (Frontiers in Microbiology, 2017).

Assays:
Assay type in all cases: cell-based, Lactococcus lactis
NZ9000Cm = assay: Growth inhibition (IC50), nisin-sensitive control strain with empty vector; conditions: product of NSR cleavage (last six amino acids cleaved off)
Source text: (§1) The nsrfp gene from S. agalactiae COH1 was amplified from the chromosomal DNA using two primers (NsrFP_for 5′-[…]-3′ and NsrFP_rev 5′-[…]-3) and ligated into pIL-SV (E. coli–L. lactis shuttle vector) ([Alkhatib et al., 2014b]). The point mutation NsrFH202A was introduced by a standard mutagenesis protocol using the following primers: forward: 5′-[…]-3′; reverse: 5′-[…]-3′. The resulting plasmid was verified by sequencing and transformed into the L. lactis strain NZ9000 for expression ([Holo and Nes, 1989]) and the corresponding strains were termed NZ9000NsrFP and NZ9000NsrFH202AP. An empty vector pIL-SVCm was also transformed into the NZ9000 strain and was used as a control (that excludes any possible effect of induction of the plasmid), and this strain was called NZ9000Cm. The expression of the nsrfp gene is regulated by the TCS NisR/NisK present in the NZ9000 strain genome.
Cells from the different expressing strains were grown overnight in GM17 supplemented with 5 μg/ml chloramphenicol in presence of 1 ng/ml nisin. […]
(§2) The plate was incubated at 30°C. After 5 h, the optical density was measured at 584 nm via 96-well plate reader BMG. The normalized optical density was plotted against the logarithm of the nisin concentration in order to calculate the IC50 of nisin and the data was evaluated using the following equation (Eq. 1): […]

NZ9000NsrFH202AP = assay: Growth inhibition (IC50), strain expressing ATP-hydrolysis-deficient NsrFH202AP; conditions: IC50 against NZ9000NsrFH202AP divided by IC50 against NZ9000Cm
Source text: as §1
Cells from the different expressing strains were grown overnight in GM17 supplemented with 5 μg/ml chloramphenicol in presence of 1 ng/ml nisin. The diluted cells (final OD584 was 0.1) were incubated with a serial dilution of nisin in a 96-well plate. The total volume in each well was 200 μl, consisting of 50 μl nisin and 150 μl GM17 containing the corresponding L. lactis strain.
The plate was incubated at 30°C. After 5 h, the optical density was measured at 584 nm via 96-well plate reader BMG. The normalized optical density was plotted against the logarithm of the nisin concentration in order to calculate the IC50 of nisin and the data was evaluated using the following equation (Eq. 1):
y=ODmin+ODmax−ODmin/1+10^(log(IC50)−x) ×p
The ODmax value describes the normalized optical density value where no nisin was added, while the ODmin value corresponds to the normalized optical density of the cells grown in the highest nisin concentrations. The y represents the resulted normalized optical density value and x represents the logarithmic of the nisin concentration added. The IC50 value is the concentration of nisin where the growth of the L. lactis strain is inhibited by 50% ([Abts et al., 2011]).
We determined the IC50 value of nisin against the NZ9000Cm sensitive strain as well as the strain NZ9000NsrFP and NZ9000NsrFH202AP. By dividing these two values the fold of resistance is obtained. […] Dividing these two values results in a fold of resistance of 16.7.

NZ9000NsrFP = assay: Growth inhibition (IC50), strain expressing NsrFP; conditions: IC50 against NZ9000NsrFP divided by IC50 against NZ9000Cm
Source text: as §1, with “genome. […]” for “genome.”
as §2
We determined the IC50 value of nisin against the NZ9000Cm sensitive strain as well as the strain NZ9000NsrFP and NZ9000NsrFH202AP. […]

C=C1NC(=O)[C@H]([C@@H](C)CC)NC(=O)[C@H](NC(=O)/C(=C/C)NC(=O)[C@@H](N)[C@@H](C)CC)CSC[C@@H](C(=O)N[C@H]2C(=O)N3CCC[C@H]3C(=O)NCC(=O)N[C@H](C(=O)N[C@@H](CCCCN)C(=O)N[C@H]3C(=O)NCC(=O)N[C@@H](C)C(=O)N[C@@H](CC(C)C)C(=O)N[C@@H](CCSC)C(=O)NCC(=O)N[C@H](C(=O)N[C@@H](CC(N)=O)C(=O)N[C@@H](CCSC)C(=O)N[C@@H](CCCCN)C(=O)N[C@H]4C(=O)N[C@@H](C)C(=O)N[C@H]5C(=O)N[C@@H](CS[C@H]4C)C(=O)N[C@@H](Cc4c[nH]cn4)C(=O)N[C@H](C(=O)O)CS[C@H]5C)CS[C@H]3C)CS[C@H]2C)NC(=O)[C@H](CC(C)C)NC1=O [Nisin1-28]
Fold lower activity compared with nisin (NZ9000Cm): 32 fold | Fold of resistance NZ9000NsrFH202AP (NZ9000NsrFH202AP): 0.4 fold

C=C1NC(=O)[C@H]([C@@H](C)CC)NC(=O)[C@H](NC(=O)/C(=C/C)NC(=O)[C@@H](N)[C@@H](C)CC)CSC[C@@H](C(=O)N[C@H]2C(=O)N3CCC[C@H]3C(=O)NCC(=O)N[C@H](C(=O)N[C@@H](CCCCN)C(=O)N[C@H]3C(=O)NCC(=O)N[C@@H](C)C(=O)N[C@@H](CC(C)C)C(=O)N[C@@H](CCSC)C(=O)NCC(=O)N[C@H](C(=O)N[C@@H](CC(N)=O)C(=O)N[C@@H](CCSC)C(=O)N[C@@H](CCCCN)C(=O)O)CS[C@H]3C)CS[C@H]2C)NC(=O)[C@H](CC(C)C)NC1=O [Nisin1-22]
Fold of resistance NZ9000NsrFH202AP (NZ9000NsrFH202AP): 0.7 fold

C/C=C(\NC(=O)[C@H](CCCCN)NC(=O)[C@H](C)NC(=O)[C@@H]1CS[C@@H](C)[C@@H](NC(=O)[C@@H]2CSC[C@@H](NC(=O)[C@H](C)NC(=O)[C@@H](N)[C@@H](C)CC)C(=O)N[C@@H](CCCCN)C(=O)N[C@@H](Cc3ccccc3)C(=O)N[C@@H](CC(C)C)C(=O)N2)C(=O)N2CCC[C@H]2C(=O)NCC(=O)N1)C(=O)NCC(=O)N[C@@H]1CSC[C@@H]2NC(=O)[C@H](Cc3ccc(O)cc3)NC(=O)[C@@H](CS/C=C\NC2=O)NC(=O)[C@H](CC(N)=O)NC(=O)[C@H](Cc2ccccc2)NC1=O [Gallidermin]
Fold of resistance NZ9000NsrFP (NZ9000NsrFP): 12.5 fold | Fold of resistance NZ9000NsrFH202AP (NZ9000NsrFH202AP): 0.9 fold

C=C(NC(=O)[C@@H](NC(=O)[C@H](CCCCN)NC(=O)[C@@H](NC(=O)[C@H](CO)NC(=O)[C@@H]1CS[C@@H](C)[C@H]2NC(=O)[C@H](C)NC(=O)[C@H](NC(=O)[C@H](CCCCN)NC(=O)[C@H](Cc3ccc(O)cc3)NC(=O)[C@H](CC(N)=O)NC(=O)[C@@H]3CS[C@@H](C)[C@@H](NC(=O)[C@H](CCCCN)NC(=O)[C@@H]4CS[C@@H](C)[C@@H](NC(=O)[C@@H]5CSC[C@@H](NC(=O)/C(=C/C)NC(=O)[C@@H](N)Cc6ccccc6)C(=O)N[C@@H]([C@@H](C)CC)C(=O)NC(=C)C(=O)N[C@@H](CCSC)C(=O)N5)C(=O)N5CCC[C@H]5C(=O)NCC(=O)N4)C(=O)NCC(=O)N[C@@H](C)C(=O)N[C@@H](CC(C)C)C(=O)N[C@@H](CCSC)C(=O)N/C(=C\C)C(=O)N3)[C@H](C)SC[C@H](NC2=O)C(=O)N[C@@H](Cc2c[nH]cn2)C(=O)N1)[C@@H](C)CC)C(C)C)C(=O)N[C@@H](CCCCN)C(=O)O [Nisin H]
Fold of resistance NZ9000NsrFP (NZ9000NsrFP): 12.3 fold | Fold of resistance NZ9000NsrFH202AP (NZ9000NsrFH202AP): 1.1 fold
